Data on one compound can be found in paper PMC12491701, “Discovery of an APP-selective BACE1 inhibitor for Alzheimer's disease” (Neurotherapeutics, 2025).

One data set has as its target T1, cathepsin D (CatD) (Homo sapiens, UniProt P07339).
T1 construct: purchased R&D Systems 1014-AS
The data set is described as follows: Cathepsin D activity assay. In kind it is biochemical. The method, then:
The effects of candidate ASBIs on cathepsin D (CatD) activity was assessed using the R&D Systems CatD activity assay kit (Catalog #: 1014-AS and ES001) according to the manufacturer's instructions. For the assay, 4 μL of assay buffer was added to each well, followed by 2 μL of CatD diluted in assay buffer to 5 ng/uL. Then, 2 μL of inhibitor, at concentrations along an 11 pt. two-fold dilution series starting at 50 μM, were added to appropriated wells and incubated for 30 min at room temperature. For all dilutions of inhibitor, drug stock solutions of 10 mM in DMSO were diluted to 50 μM in water; subsequent dilutions were in 2.5 % DMSO. Afterwards, 2 μL of fluorogenic CatD substrate, diluted to 50 μM in assay buffer, were added to each well, after which the signal generated was read every 30 min at 25 °C for 1hr.

Another data set can be described thus: Kinetic solubility assay. In kind it is physicochemical. The following applies: aqueous buffer, kinetic from dmso stock, PBS pH 7.4, 37 °C. The method, then:
FAH65 and its enantiomers at 10 mM in 100% DMSO was diluted in PBS pH 7.4 to 100, 10, 1, and 0.1 µM; plus, a vehicle-only control. The solutions were incubated at 37 °C for 90 min and centrifuged at 16K x g for 5 min. An aliquot of each supernatant was analyzed by LC-MS/MS. A standard curve was generated by plotting the known amount of analyte per standard in DMSO vs. chromatographic peak […]
Kinetic solubility (µM) was calculated using the trendline equation with maximum chromatographic peak area observed in the aqueous sample. (Table S3)
(§1) Liver microsome stability assay
(§2) A 1 µL sample of 1 mM FAH65 and its enantiomers in 100% DMSO was added to 1 mL of 0.5 mg/mL human liver microsomes (Thermo Fisher Scientific, Cat# HMMPL) in PBS pH 7.4, 2 mM NADPH, and 2 mM MgCl2; and incubated at 37 °C for 120 min. Aliquots (50 µL) of the microsome solution were taken […]
quenching solution containing an internal standard. Solutions were clarified by centrifugation (16K x g, 5 min) and supernatants transferred to new tubes and lyophilized. Samples were reconstituted in 100 µL of 50/50/0.1 water/acetonitrile/formic acid prior to analysis via LC-MS/MS. […]
(§3) One µL FAH65 and its enantiomers (1 mM in 100% DMSO) was added to human peripheral blood plasma (Cat#70039, Stemcell Technologies Inc) diluted 2-fold in PBS (1000 µL, pH 7.4) and incubated […]

Another data set is described as follows: Plasma stability assay. The settings on record: human plasma diluted 2-fold in PBS, pH 7.4, 37 °C, 180 min, read-out: Plasma stability t1/2. In kind it is in vitro ADME. As to the method: The effects of candidate ASBIs on BACE2 activity was assessed using the R&D Systems BACE2 activity assay kit (Catalog #: 4097-AS and ES010) formatted from to the manufacturers. For the assay, 4 μL of assay buffer was added to each well, followed by 2 μL of BACE2 diluted in assay buffer to 10 ng/µL.
Then, 2 μL of inhibitor, at the appropriate concentrations were added to the wells and incubated for 30 minutes at room temperature. For all dilutions of inhibitor, drug stock solutions of 10 mM in DMSO were diluted to 50 μM in water; subsequent dilutions were in 0.5% DMSO. Afterwards, 2 μL of fluorogenic BACE2 substrate, diluted to 50 μM in assay buffer, were added to each well, after which the signal generated was read every 30 minutes at 25 °C for 2 hr (Fig S2).
FAH65 and its enantiomers at 10 mM in 100% DMSO was diluted in PBS pH 7.4 to 100, 10, 1, and 0.1 µM; plus, a vehicle-only control. The solutions were incubated at 37 °C for 90 min and centrifuged at 16K x g for 5 min. An aliquot of each supernatant was analyzed by LC-MS/MS. […]
Kinetic solubility (µM) was calculated using the trendline equation with maximum chromatographic peak area observed in the aqueous sample. […]
([…]® CAN, Chiral Technologies, Cat#H15L-109, 5 µm 50 x 4 mm). […] The retention time of the compound (tr) and injection peak were recorded.
The percent protein binding (P) was calculated using the following equations: […]

Data set [1] can be described thus: Liver microsome stability assay. In kind it is in vitro ADME. The settings on record: human, human liver microsomes, pH 7.4, human liver microsomes; read-out: Microsomal stability T1/2. As to the method: as §1, §2
quenching solution containing an internal standard. Solutions were clarified by centrifugation (16K x g, 5 min) and supernatants transferred to new tubes and lyophilized. Samples were reconstituted in 100 µL of 50/50/0.1 water/acetonitrile/formic acid prior to analysis via LC-MS/MS.
Normalized chromatographic peak areas were plotted at each time point and the half-life (t1/2) of compound in liver microsomes was determined by using the trendline equation to calculate the time at which compound abundance was 50% of that at timepoint 0 (T0).
as §3
and 180 min, and added to a 200 µL 100% acetonitrile reaction quenching solution containing an internal standard. Solutions were clarified by centrifugation (16K x g, 5 min) and supernatants were transferred to new tubes and lyophilized. […]
(Liver microsomes are vesicles of endoplasmic reticulum, rich in cytochrome P450 enzymes.)

In brackets after ≈: the same amount, converted by molar mass. Bounds are passed on as bounds.

T1 sequence (P07339 65-412): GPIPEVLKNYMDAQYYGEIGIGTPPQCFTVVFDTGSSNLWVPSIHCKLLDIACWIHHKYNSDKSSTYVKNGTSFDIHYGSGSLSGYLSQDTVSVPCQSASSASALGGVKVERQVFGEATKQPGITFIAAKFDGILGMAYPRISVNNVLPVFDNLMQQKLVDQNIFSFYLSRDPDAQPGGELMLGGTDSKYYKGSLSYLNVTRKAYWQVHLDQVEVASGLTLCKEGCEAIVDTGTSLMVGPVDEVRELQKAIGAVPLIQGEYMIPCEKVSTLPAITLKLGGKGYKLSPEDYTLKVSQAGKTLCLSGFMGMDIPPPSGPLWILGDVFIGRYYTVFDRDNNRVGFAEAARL

For `Cc1cc(C2(c3cccc(-c4cncnc4)c3)N=C(N)N(C)C2=O)ccc1OC(F)F` (centres unmarked) [FAH65], the “inhibition of cathepsin D activity” value on cathepsin D (CatD) (in words) is “Neither analog significantly inhibited”. On cathepsin D (CatD) (read-out: Cat D IC50), the IC50 was around 47 µM. The same compound had a kinetic solubility at 90 min in “Kinetic solubility assay” of 88 µM (≈ 37.3 µg/mL). The half-life at 1 µM in “Plasma stability assay” is above 180 min; in data set [1], 38 min.

The term IC50 denotes the midpoint of a concentration-inhibition curve. The term kinetic solubility denotes the concentration staying in solution when a stock, usually in DMSO, is diluted into the medium.
